Laboratory results as given in patent US8731655B2, “Compounds containing acyclic N-N bonds for phototherapy” (Mallinckrodt LLC, priority 2009, dated 2014).

Experiments:
[1] = Absorption maxima of photosensitizer; assay type: physicochemical
[2] = system: human myeloid leukemia U937 cell line; experiment: Cell viability upon exposure of tumor cells to photosensitizer and light; assay type: cell-based; conditions: for cell viability result in words: U937 cells exposed to light in presence of photosensitizer, various concentrations and durations; for percent viability: U937 cells
Method: (§1) Abstract: A class of Type 1 photosensitizer containing fragile —N—N— bonds that produce reactive intermediates upon photoexcitation was prepared and tested in vitro. U937 leukemia cells were incubated with the photosensitizer at various concentrations and irradiated with 325-425 nm light at various durations.
(§2) Cell Viability Measurements: A general procedure is carried out for measuring cell viability upon exposure of tumor cells to a photosensitizer having Formula (FX23) or (FX25) and light. The photosensitizer (FX23) has an absorption maxima (λmax) of 385 nm. The cell viability analysis is carried out using human myeloid leukemia U937 cell line by the standard WST-1 assay. In this procedure, U397 Luekemia cells (0.5×10^6) are plated in standard T-25 cell culture flasks, and are exposed to four controls and a series of test conditions corresponding to a range of photosensitizer concentrations.
(§3) The photosensitizers having formula (FX23) and (FX25) are dissolved in DMSO at an initial concentration of about 8 mM and diluted with water to the final desired value such that amount of DMSO exposed to the cells is below 0.5%. The cells are incubated at 37° C. with various concentrations the photosensitizer for about 30 minutes prior to the exposure of light. […] It should be noted that in the present study, the light source is not optimized with respect to power and wavelength. The viability of cells is assessed after 24 hours following light exposure. The light source is a B-100SP High Intensity Lamp from UVP. Once exposure is complete, cells are processed to determine percent viability using Hank's Balanced Salt Solution (HBSS), Trypan blue stain, and a hemacytometer to count live and dead cells. The number of viable cells is determined and percent viability is determined

[3] = as above; assay type: cell-based, human; conditions: human, U937 myeloid leukemia cells; U937 cells, 10.0 μM photosensitizer, no light exposure; read-out: percent viability
Method: as §1, §2, §3

Structure (SMILES)	absorption maxima (λmax) [1]	IC50 ([2]; Homo sapiens, U-937, 20 min, U937 cells exposed to light and the photosensitizer for 20 minutes, read-out: VC50/20 (concentration at which 50% decrease in cell viability is observed))	cell viability result in words [2]	percent viability ([2]; 0.16 μM photosensitizer, light exposure 5 minutes (325-425 nm lamp), viability 24 h after exposure)	percent viability ([2]; 0.16 μM photosensitizer, light exposure 10 minutes)	percent viability ([2]; 0.16 μM photosensitizer, light exposure 20 minutes)	percent viability ([2]; 0.32 μM photosensitizer, light exposure 5 minutes)	percent viability ([2]; 0.32 μM photosensitizer, light exposure 10 minutes)	percent viability ([2]; 0.32 μM photosensitizer, light exposure 20 minutes)	percent viability ([2]; 0.63 μM photosensitizer, light exposure 5 minutes)	percent viability ([2]; 0.63 μM photosensitizer, light exposure 10 minutes)	percent viability ([2]; 0.63 μM photosensitizer, light exposure 20 minutes)	viability at 10 μM [3]	percent viability ([2]; 1.25 μM photosensitizer, light exposure 10 minutes)	percent viability ([2]; 1.25 μM photosensitizer, light exposure 20 minutes)	percent viability ([2]; 5.0 μM photosensitizer, light exposure 10 minutes)	percent viability ([2]; 5.0 μM photosensitizer, light exposure 20 minutes)	percent viability ([2]; 10.0 μM photosensitizer, light exposure 10 minutes)	percent viability ([2]; 10.0 μM photosensitizer, light exposure 20 minutes)
CCOC(=O)NN(C(=O)OCC)c1c2ccccc2cc2ccccc12 [FX23]	385 nm	0.13 ± 0.03 µM	concentration-dependent and light exposure time-dependent decrease in cell viability	78%	40%	40%	41%	5%	5%	5%	5%	4%	–	–	–	–	–	–	–
COc1cc(OC)c(/C=N/Nc2c3ccccc3nc3ccccc23)c(OC)c1 [FX25]	–	–	concentration-dependent and light exposure time-dependent decrease in cell viability	–	–	–	–	–	–	–	–	–	60%	100%	100%	65%	10%	40%	4%
